According to publication PMC4506598, “A small molecular agent YL529 inhibits VEGF-D-induced lymphangiogenesis and metastasis in preclinical tumor models in addition to its known antitumor activities” (BMC Cancer, 2015):
Like-named read-outs stand apart in the source and are kept apart here.

What was measured:
parental LL/2 cells = test: CCK-8 cell viability assay; format: cell-based, murine; settings: Mus musculus, 48 h, read-out: IC50, proliferation of parental LL/2 cells
Procedure: Human lymphatic endothelial cells (HLECs) were purchased from the ScienCell™ Research Laboratories and cultured in endothelial cell medium (ECM) containing 5 % fetal bovine serum (FBS), 1 % endothelial cell growth supplement (ECGS), 100 IU/mL penicillin and 100 μg/mL streptomycin. Lewis lung carcinoma LL/2 cells were obtained from American Type Culture Collection (ATCC) and cultured in DMEM containing 10 % FBS, 100 IU/mL penicillin and 100 μg/mL streptomycin. Subcultures were performed with trypsin-EDTA. All cells were incubated in an atmosphere of 5 % CO2 at 37 °C.
(§1) Cell viability assays were performed using CCK-8 kit. Briefly, VEGF-D-LL/2 cells, parental LL/2 cells and HLECs were treated with various concentrations of YL529 in 96-well culture plates for 48 h. CCK-8 was added to the cells and the plate was incubated for an additional 2–4 h. The optical density (OD) was then measured at 450 nm using a Spectra MAX M5 microplate spectrophotometer (Molecular Devices, Sunnyvale, CA).
(§2) VEGF-D-LL/2 cells were previously established by transfection with the pcDNA3.1 (+) expression vector containing mouse VEGF-D [31]. Similar to the previous data from our group, this study uses a VEGF-D antibody that detects the mature form of VEGF-D, because the fully mature cleaved form of 21 kD has the greatest affinity for the receptors, and can bind and activate not only VEGFR-2 but also VEGFR-3.

[1] = pharmacokinetics after oral administration in mice; format: in vivo, C57 BL/6 mice; settings: for half-life: po
Procedure: C57 BL/6 mice (n = 3 per time point) were administered 150 mg/kg YL529 orally. Blood samples of the mice were collected at appropriate intervals and the plasma concentration of YL529 was analyzed by HPLC (Waters, MA, USA). The pharmacokinetic characteristics and parameters were analyzed using Pharmacokinetic Software of Drug and Statistics (DAS, edited and published by the Mathematical Pharmacology Professional Committee of China, Shanghai, China).

HLECs [2] = test: scratch-induced (wound healing) migration assay; format: cell-based; settings: Homo sapiens, read-out: inhibition of cell migration
Procedure: The anti-metastasis effect of YL529 was determined using a scratch-induced cell migration assay in vitro [24, 25]. Briefly, 1 × 10^5 HLECs were plated in 6 well plates and synchronized by serum-free ECM medium for 8 h, then used a micropipette tip to create a 2 mm-wide linear gap. Cells were washed to remove non-adherent cells and further incubated with fresh ECM medium containing or lacking YL529. An inverted microscope (Carl Zeiss, Germany) was used to photograph after YL529 treatment for another 48 h.
We next examined the effects of YL529 on HLECs migration using a wound healing migration assay.

p-VEGFR-3 = test: western blot of VEGFR-3/p-VEGFR-3 in HLECs; format: cell-based, human; settings: after 2 h of treatment
Procedure: (§3) Standard western blot analysis was performed. Briefly, Cell lysates were washed with phosphate buffered saline (PBS) and lysed in RIPA (radioimmunoprecipitation assay) buffer. Then lysates were centrifuged at 12000 g for 30 min at 4 °C. The Bio-Rad Protein Assay kit (Bio-Rad Laboratories) was used to determine the samples protein concentration according to the manufacturers’ recommendations. The lysates were dissolved in 5 × SDS sample buffer and denatured, then subjected to 6 % to 12 % SDS-PAGE (sodium dodecyl sulfate polyacrylamide gel electrophoresis) according to molecular weight and transferred onto PVDF (polyvinylidene fluoride) (Bio-Rad, Hercules, CA) membranes. Membranes were blocked for 1 h in 5 % dried milk in TBS/T at room temperature and incubated overnight at 4 °C with the primary antibodies and horseradish peroxidase-conjugated secondary antibodies. Protein bands were visualized with enhanced chemiluminescent substrate (Amersham Biosciences Corp., Piscataway, NJ).
To gain in-depth insight into the molecular mechanism of anti-lymphangiogenesis effects of YL529, the expression levels of VEGFR-3/p-VEGFR-3 in HLECs were analyzed by western blotting in vitro.

HLECs [3] = test: tube formation assay; format: cell-based; settings: Homo sapiens, 6 h
Procedure: The antilymphogenic effects of YL529 were analyzed in vitro using a tube-formation assay in HLECs. Briefly, 96-well plate was pre-incubated with 100 μl per well of Matrigel Matrix at 37 °C for 30 min, HLECs were seeded at a density of 3 × 10^4 cells per well in ECM medium. And after cultured in the presence or absence of designed concentrations of YL529 on Matrigel Matrix at 37 °C another 6 h, tube formation by endothelial cells was evaluated and photographed under an inverse microscope (Zeiss, Axiovert 200, Germany).
To further understand the mechanism of the anti-lymphogenic effect of YL529, the antilymphogenic tube formation effect of YL529 was analyzed with cultured HLECs in vitro [30]. […] In great contrast, HLECs without YL529 treatment spread and aligned with each other and formed a rich meshwork of branching capillary-like tubules within 6 h (Fig. 2c).

VEGFR2 = settings: 10 μM; cited from earlier work
VEGF-D-LL/2 cells [4] = test: CCK-8 cell viability assay; format: cell-based, murine; settings: Mus musculus, 48 h, read-out: IC50, proliferation of VEGF-D-LL/2 cells
Procedure: The transfected murine LL/2 Lewis lung carcinoma cells with the pcDNA3.1 (+) expression vector containing mouse VEGF-D (VEGF-D-LL/2 cells) or pcDNA3.1 (vector alone) were transfected as reported before obtained in our laboratory. The cell lines were maintained in an atmosphere of 5 % CO2 at 37 °C in cell culture medium DMEM supplemented with 10 % fetal bovine serum. Western blot analysis was performed to analyze the expression of recombinant VEGF-D of these cells.
as §1, §2

VEGF-D-LL/2 tumors [5] = test: VEGF-D-LL/2 syngeneic muscle tumor metastasis model; format: in vivo, C57 BL/6 mice; settings: for percent of mice with local lymph node metastasis: vehicle 80 % ~ 90 %
Procedure: (§4) Seven-week-old female C57 BL/6 mice (Beijing animal center, Beijing, China) were used. VEGE-D-LL/2 cells (1 × 10^6) were injected intramuscularly and subcutaneously in hind limb of mice. The mice were randomized into 5 groups (n = 10 per groups) and orally administered 37.5, 75 and 150 mg/kg/day YL529, vehicle and saline alone (N.S.), respectively for 14 days when tumors became visible the 10th day after cells were implanted. Tumor growth and mice weight was monitored every 3 days. When animals were sacrificed with CO2 gas at the end of drug administration, tumor tissues, lung organs and local lymph nodes were removed, weighted and calculated by manual. Tumor size was determined by measuring the largest and perpendicular diameters every 3 days, tumor volume was calculated using the formula: volume (mm^3) = 0.5 × length × width^2. In addition, the same subcutaneously tumor models were used to monitor the survival time of experimental mice after drug administration. All animals experiments performed were in accordance with the guidelines of the institute’s Animal Care and Use Committee of Sichuan University (Chengdu, China).
(§5) Tumor tissues from vehicle and 150 mg/kg YL529 groups were fixed in 4 % paraformaldehyde, dehydrated and embedded in paraffin [27]. Sections of these tissues were subsequently incubated with LYVE-1 and corresponding second antibodies and visualized using peroxidase-DAB. TUNEL staining was also performed for fixed tissues (Promega, USA). Quantification was done as described. Briefly, the microvessel counting was done in representative 200× fields or three high-power (400×) fields of the highest vascular density.
(§6) Based on the safety profile and the in vivo pharmacokinetics of YL529, chronic oral administration of YL529 at daily dosages of 37.5 ~ 150 mg/kg/day was chosen to treat the mice with VEGF-D-LL/2 tumors (syngeneic s.c. and muscle models).

[6] = high-dose toxicity, organ parameters in rats; format: in vivo; settings: SD rats; for Heart index / Kidney index / Liver index / Lung index / Spleen index: oral 6000 mg/kg
VEGFR-3 = settings: 10 μM; cited from earlier work
HLECs [7] = test: transwell invasion assay; format: cell-based; settings: Homo sapiens, read-out: inhibition of cell invasion
Procedure: Transwell migration assay was adopted to indicate the anti-metastasis effect of YL529 [26]. Briefly, the transwell were pre-coated with 25 % Matrigel Matrix containing growth factors (BD Biosciences, Bedford, MA) for 30 min at 37 °C. And then the bottom chambers were filled with 600 μl ECM medium and the top chambers were seeded with 4 × 10^4 cells HLECs (100 μl/well). The top and bottom chambers were incubated for another 24 h. Then cells on the top surface of the membrane were scraped with a cotton swab. Cells on the bottom side of the membrane were fixed with 4 % paraformaldehyde and stained with 0.1 % crystal violet (Sigma-Aldrich, USA). An inverted microscope (Zeiss, Axiovert 200, Germany) was used to obtain the images and the invading cells were quantified.
To further measure the effect of YL529 on HLECs invasion, we used a transwell assay and measured the number of HLECs that passed through a membrane barrier following treatment with various concentrations of YL529 [29].

VEGF-D-LL/2 tumors [8] = test: VEGF-D-LL/2 syngeneic s.c. tumor model; format: in vivo
Procedure: as §4, §5, §6

VEGF-D-LL/2 cells [9] = test: western blot of p-JNK, Bax, Bcl-2 in VEGF-D-LL/2 cells; format: cell-based, murine
Procedure: as §3

HLECs [10] = test: CCK-8 cell viability assay; format: cell-based; settings: Homo sapiens, 48 h, read-out: IC50, proliferation of HLECs
Procedure: as §1
CCK-8 assay was used to evaluate the potential proliferation inhibition effect of HLECs after treated with YL529 or vehicle for 48 h.

safety profile in mice = format: in vivo; settings: 150 mg/kg daily for 18 days
Procedure: To evaluate the safety profile of YL529 (150 mg/kg) in vivo, we have observed the gross measures such as weight loss, life span, behavior and feedings. Moreover, we have also investigated the mortality and clinical signs of C57BL/6 mice throughout oral administration period. In addition, blood samples and heart, liver, spleen, lung, and kidney tissues of mice were collected; the histopathological, serum biochemistry and hematological analysis were done to observe the possible pathological changes. In addition, we also evaluated the safety profiles of YL529 after oral administration with high dose (6000 mg/kg) for 14 days.
Currently, side effects are the prevalent shortcomings of anticancer drugs.

[11] = C57 BL/6, mouse, plasma, single dose 150 mg/kg

Structure (SMILES): CNC(=O)c1cc(Oc2ccc(NC(=O)c3cccc(C(F)(F)F)c3)cc2)ccn1 [YL529, N-methyl-4-(4-(3-(trifluoromethyl)benzamido)phenoxy)picolinamide4-methylbenzenesulfonate]
- IC50 (parental LL/2 cells): 9.6 µM
- Cmax ([1]; C57 BL/6, mouse, plasma, 150 mg/kg, read-out: peak plasma concentration (Cmax)): 18000 ng/mL
- half-life ([1]; C57 BL/6, mouse, plasma, 150 mg/kg, single dose 150 mg/kg, read-out: t1/2z (converted)): 4.11 h
- half-life ([1]; C57 BL/6, mouse, plasma, 150 mg/kg, single dose 150 mg/kg, read-out: t1/2β (converted)): 6.03 h
- AUC(0-inf) [1, 11]: 171 µg·h/mL
- AUC(0-t) [1, 11]: 167 µg·h/mL
- Tmax [1, 11]: 2 h
- Cmax ([1]; single dose 150 mg/kg): 18030 ng/mL
- T1/2α ([1]; single dose 150 mg/kg): 1.39 h
- inhibition at 2.5 µM (HLECs [2]; 2.5 μM): 44.3%
- inhibition at 5 µM (HLECs [2]; 5 μM): 66.8%
- inhibition at 10 µM (HLECs [2]; 10 μM): 79.8%
- phosphorylation of VEGFR-3 (p-VEGFR-3): potently inhibited
- total expression of VEGFR-3 (p-VEGFR-3): no change
- inhibition at 10 µM (HLECs [3]): 85.7%
- inhibition of VEGFR2 activity (VEGFR2): inhibited VEGFR2 activity
- IC50 (VEGF-D-LL/2 cells [4]): 7.2 µM
- number of mice with lung metastasis and inguinal lymph node metastasis (VEGF-D-LL/2 tumors [5]): significantly reduced
- percent of mice with local lymph node metastasis (VEGF-D-LL/2 tumors [5]; 37.5 mg/kg group): 50%
- lymphangiogenesis in tumor tissues (LYVE-1 staining), change vs vehicle group (VEGF-D-LL/2 tumors [5]; 150 mg/kg for 14 days): 34.71%
- percent of mice with local lymph node metastasis (VEGF-D-LL/2 tumors [5]; 150 mg/kg group): 20%
- body weight (VEGF-D-LL/2 tumors [5]; end of drug administration): no loss of body weight
- weight changes of major organs (heart, liver, spleen, lung, kidney and brain) ([6]; 6000 mg/kg daily for 14 days): no obvious weight changes
- Heart index ([6]; female): 0.42 ± 0.09%
- Kidney index ([6]; female): 0.38 ± 0.09%
- Liver index ([6]; female): 3.13 ± 0.09%
- Lung index ([6]; female): 0.43 ± 0.06%
- Spleen index ([6]; female): 0.25 ± 0.03%
- Heart index ([6]; male): 0.42 ± 0.06%
- Kidney index ([6]; male): 0.38 ± 0.09%
- Liver index ([6]; male): 3.09 ± 0.13%
- Lung index ([6]; male): 0.42 ± 0.09%
- Spleen index ([6]; male): 0.24 ± 0.04%
- inhibition of VEGFR-3 activity (VEGFR-3): 97%
- inhibition at 2.5 µM (HLECs [7]; 2.5 μM, compared with vehicle): 28%
- inhibition at 5 µM (HLECs [7]; 5 μM): 65.9%
- inhibition at 10 µM (HLECs [7]; 10 μM): 90.2%
- apoptotic tumor cells (TUNEL), increase vs. vehicle (VEGF-D-LL/2 tumors [8]; 150 mg/kg): 20 fold
- mice survived to 54 days (VEGF-D-LL/2 tumors [8]; 150 mg/kg group): 60%
- mice survived to 40 days (VEGF-D-LL/2 tumors [8]; YL529 treated groups): 90%
- body weight (VEGF-D-LL/2 tumors [8]; at this dosage): no loss of body weight
- tumor volume reduction (VEGF-D-LL/2 tumors [8]; compared with vehicle-treated group, oral, dose not given): 66.22%
- expression level of Bcl-2 (VEGF-D-LL/2 cells [9]): increased
- expression level of p-JNK (VEGF-D-LL/2 cells [9]): decreased
- IC50 (HLECs [10]): 5.5 µM
- body weight loss or tissue damage (safety profile in mice): no obvious body weight loss or tissue damage
